The text below walks through data of patent US20170035708A1, “USE OF N-(4-TERT-BUTYLBENZYL)-3-CHLORO-N-[2-(4-CHLORO-3-ETHYL-PHENYL)-ETHYL]-2-FLUORO-5-TRIFLUOROMETHYL-BENZAMIDE FOR THE TREATMENT OF EYE DISEASES” (Hoffmann-La Roche Inc., priority 2013, published 2017).

In this experiment the test system is Human umbilical vein endothelial cells (HUVEC). Description: alamarBlue viability assay in HUVECs. The class given is cell-based. Conditions: 72 h. The procedure: Human umbilical vein endothelial cells (HUVEC), the growth medium EGM and the basal medium EBM was obtained from Lonza. Additional FCS for the starving medium was used form Invitrogen.
The viability assay with alamarBlue® from Invitrogen was done in 96 well gelatin coated plates from BD.
The tested compounds were dissolved in DMSO at a stock concentration of 10 mM.
VEGF-A165 was obtained from R&D Systems® and has been dissolved at a stock concentration of 100 ug/ml in PBS.
HUVECs cells were maintained in Endothial growth medium (EGM) until Passage 5. For the viability assay HUVECs have been seeded in EBM with 0.5% FCS on gelatin coated 96 well plates at a cell density of 11.000 cells/well. Outer wells were left free and have been filled with medium afterwards. Cells were incubated overnight in a cell culture incubator at 37° C. with 5% CO2. Compounds and VEGF have been diluted in EBM/0.5% FCS to a 20× working concentration. 5 ul of the 20× pre-dilution have been added to the cells. HUVECs which have to be intended to grow under hypoxia conditions have been transferred to a cell culture incubator with 1% O2, 5% CO2 and 37° C. HUVECs grown under normoxia conditions were incubated in a normal cell culture incubator. After 72 h, 11 ul of alamarBlue® have been added to each well of the cells subsequently incubated for 4 h in the cell culture incubator. The absorbance has been detected at 570 nm with a reference wavelength of 600 nm.
Background: The colour change of resazurin is a common sign of viable cells or microbes.

Turning to `COc1cc(F)c(C(C)C)cc1-c1ccc(C(F)(F)F)cc1CN1C(=O)O[C@H](c2cc(C(F)(F)F)cc(C(F)(F)F)c2)[C@@H]1C` [Anacetrapib, (4S,5R)-5-[3,5-bis(trifluoromethyl)phenyl]-3-({2-[4-fluoro-2-methoxy-5-(propan-2-yl)phenyl]-5-(trifluoromethyl)phenyl}methyl)-4-methyl-1,3-oxazolidin-2-one], the “alamarBlue assay OD 570 nm-600 nm” value was 0.0003 (4.1 nM, hypoxia); 0.0096 (4.1 nM, normoxia); 0.0065 (10.2 nM, hypoxia); 0.0170 (10.2 nM, normoxia); 0.0014 (25.6 nM, hypoxia); 0.0203 (25.6 nM, normoxia). The “alamarBlue assay OD 570 nm-600 nm” value is recorded as 0.0093 (64 nM, hypoxia); 0.0119 (64 nM, normoxia); −0.0022 (160 nM, hypoxia); 0.0168 (160 nM, normoxia); 0.0260 (400 nM, hypoxia); 0.0352 (400 nM, normoxia). Further, the “alamarBlue assay OD 570 nm-600 nm” value amounted to 0.0565 (1000 nM, hypoxia); 0.0662 (1000 nM, normoxia); 0.0814 (2500 nM, hypoxia); 0.0846 (2500 nM, normoxia). Moreover, the “effect on viability of HUVECs” value by setting is: (hypoxia) “positive effect on viability, albeit with lower efficacy”; (normoxia) “positive effect of viability”.
Take `Cc1cc(C)c2c(c1)[C@@H](N(Cc1cc(C(F)(F)F)cc(C(F)(F)F)c1)c1nnn(C)n1)CCCN2C[C@H]1CC[C@H](C(=O)O)CC1` [Evacetrapib, Trans-4-({(5S)-5-[{[3,5-bis(trifluoromethyl)phenyl]methyl}(2-methyl-2H-tetrazol-5-yl)amino]-7,9-dimethyl-2,3,4,5-tetrahydro-1H-benzazepin-1-yl}methyl) cydohexanecarboxylic acid]: the “alamarBlue assay OD 570 nm-600 nm” value by setting is: (4.1 nM, hypoxia) 0.0141; (4.1 nM, normoxia) 0.0032; (10.2 nM, hypoxia) 0.0129; (10.2 nM, normoxia) 0.0158; (25.6 nM, hypoxia) 0.0131; (25.6 nM, normoxia) 0.0164. For the same compound, the “alamarBlue assay OD 570 nm-600 nm” value by setting is: (64 nM, hypoxia) 0.0076; (64 nM, normoxia) 0.0051; (160 nM, hypoxia) 0.0168; (160 nM, normoxia) 0.0227; (400 nM, hypoxia) 0.0403; (400 nM, normoxia) 0.0103. Moreover, the “alamarBlue assay OD 570 nm-600 nm” value is, setting by setting: (1000 nM, hypoxia) 0.0564; (1000 nM, normoxia) 0.0191; (2500 nM, hypoxia) −0.1084; (2500 nM, normoxia) −0.0107. Besides, the “effect on viability of HUVECs” value is given as “negative effect on the cell viability” (hypoxia) and “no influence of viability could be detected” (normoxia).
Consider `CCOC(=O)N1c2ccc(C(F)(F)F)cc2[C@@H](N(Cc2cc(C(F)(F)F)cc(C(F)(F)F)c2)C(=O)OC)C[C@H]1CC` [Torcetrapib, [2R, 4S] 4-[(3,5-bis-trifluoromethyl-benzyl)-methoxycarbonyl-amino]-2-ethyl-6-trifluoromethyl-3,4-dihydro-2H-quinoline-1-carboxylic acid ethyl ester], for which the “alamarBlue assay OD 570 nm-600 nm” value (4.1 nM, hypoxia) turned out to be 0.0129; the “alamarBlue assay OD 570 nm-600 nm” value (4.1 nM, normoxia) turned out to be 0.0020; the “alamarBlue assay OD 570 nm-600 nm” value (10.2 nM, hypoxia) is 0.0200; the “alamarBlue assay OD 570 nm-600 nm” value (10.2 nM, normoxia) is recorded as −0.0004; the “alamarBlue assay OD 570 nm-600 nm” value (25.6 nM, hypoxia) was determined as 0.0118; the “alamarBlue assay OD 570 nm-600 nm” value (25.6 nM, normoxia) turned out to be 0.0160. The “alamarBlue assay OD 570 nm-600 nm” value amounted to 0.0111 (64 nM, hypoxia); 0.0007 (64 nM, normoxia); 0.0137 (160 nM, hypoxia); 0.0194 (160 nM, normoxia); 0.0308 (400 nM, hypoxia); 0.0152 (400 nM, normoxia). Further, the “alamarBlue assay OD 570 nm-600 nm” value runs as follows: (1000 nM, hypoxia) −0.0388; (1000 nM, normoxia) 0.0001; (2500 nM, hypoxia) −0.0784; (2500 nM, normoxia) 0.0138. In addition, the “effect on viability of HUVECs” value reads like this: (hypoxia) “negative effect on the cell viability”; (normoxia) “no influence of viability could be detected”.
With VEGF, the “viability measured at 570 nm (alamarBlue)” value (“viability measured at 570 nm” below) is, setting by setting: (VEGF 1.2 ng/ml, hypoxia) 0.0480; (VEGF 1.2 ng/ml, normoxia) 0.0268; (VEGF 2.3 ng/ml, hypoxia) 0.0679; (VEGF 2.3 ng/ml, normoxia) 0.0394; (VEGF 4.7 ng/ml, hypoxia) 0.0983; (VEGF 4.7 ng/ml, normoxia) 0.0582. The “viability measured at 570 nm” value by setting is: (VEGF 9.4 ng/ml, hypoxia) 0.1114; (VEGF 9.4 ng/ml, normoxia) 0.0908; (VEGF 18.8 ng/ml, hypoxia) 0.1039; (VEGF 18.8 ng/ml, normoxia) 0.1265; (VEGF 37.5 ng/ml, hypoxia) 0.0927; (VEGF 37.5 ng/ml, normoxia) 0.1449. Besides, the “viability measured at 570 nm” value came out at 0.0906 (VEGF 75 ng/ml, hypoxia); 0.1642 (VEGF 75 ng/ml, normoxia); 0.0825 (VEGF 150 ng/ml, hypoxia); 0.1618 (VEGF 150 ng/ml, normoxia). In addition, the “survival signal in HUVECs in response to VEGF-A165” value (normoxia and hypoxia) is listed as “dose dependent survival signal”.
